According to patent US20120214847A1, “2-[1-PHENYL-5-HYDROXY-4a-SUBSTITUTED-HEXAHYDROCYCLOPENTA[F]INDAZOL-5-YL]ETHYL PHENYL DERIVATIVES AS GLUCOCORTICOID RECEPTOR LIGANDS” (Merck Sharp & Dohme Corp., priority 2009, published 2012):

Biological target: T1, glucocorticoid receptor (Homo sapiens, UniProt P04150)
T1 construct: endogenous in cells; host or cells: HeLa (ATCC) cell lysate supernatant
T1 sequence (P04150 1-777): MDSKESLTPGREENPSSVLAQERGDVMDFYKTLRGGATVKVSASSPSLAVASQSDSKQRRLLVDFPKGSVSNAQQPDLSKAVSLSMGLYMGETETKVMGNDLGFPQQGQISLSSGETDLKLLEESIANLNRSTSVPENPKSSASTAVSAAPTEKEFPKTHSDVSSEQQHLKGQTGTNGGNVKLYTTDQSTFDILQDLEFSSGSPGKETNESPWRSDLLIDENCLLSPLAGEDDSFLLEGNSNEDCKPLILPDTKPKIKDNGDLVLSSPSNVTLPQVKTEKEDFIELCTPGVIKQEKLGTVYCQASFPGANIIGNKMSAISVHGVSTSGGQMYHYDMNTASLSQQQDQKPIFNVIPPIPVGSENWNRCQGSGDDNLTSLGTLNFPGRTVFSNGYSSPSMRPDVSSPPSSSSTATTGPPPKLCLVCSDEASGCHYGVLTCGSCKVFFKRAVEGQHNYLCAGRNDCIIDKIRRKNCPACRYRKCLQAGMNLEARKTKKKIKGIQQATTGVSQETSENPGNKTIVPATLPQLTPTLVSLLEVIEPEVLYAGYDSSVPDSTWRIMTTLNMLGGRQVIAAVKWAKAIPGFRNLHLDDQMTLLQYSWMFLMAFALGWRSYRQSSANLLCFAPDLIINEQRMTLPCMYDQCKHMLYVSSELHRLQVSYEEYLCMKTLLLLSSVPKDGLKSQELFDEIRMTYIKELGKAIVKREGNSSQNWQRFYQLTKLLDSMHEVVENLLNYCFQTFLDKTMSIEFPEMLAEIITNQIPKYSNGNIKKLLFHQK
Assay: Ligand binding assay (GRBind), 3H-dexamethasone displacement in HeLa cell lysate
Conditions: 3H-DEX tracer
Summary of the method: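 Cytosolic supernatant from HeLa cells in TEGM buffer (pH 7.2, with molybdate) was incubated overnight at 4 °C with 3H-dexamethasone (6 nM trace solution) and serially diluted compound, with 2% ethanol. Bound receptor was captured on hydroxylapatite, filtered and counted by scintillation. IC50s were calculated using dexamethasone as reference.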

Compound	Ki
CC[C@]12Cc3cnn(-c4ccccc4)c3C=C1CC[C@@]2(O)CC(O)c1ccccn1 (single isomer, unassigned) [Example 82a]	11.3 nM
OC(C[C@]1(O)CCC2=Cc3c(cnn3-c3ccc(F)cc3)C[C@@]21C1CC1)c1ccc(F)cn1 (single isomer, unassigned) [Example 79b]	1.55 nM
OCc1ccccc1CC[C@]1(O)CCC2=Cc3c(cnn3-c3ccc(F)cc3)C[C@@]21C1CC1 [Example 2, (4aR,5R)-4a-Cyclopropyl-1-(4-fluorophenyl)-5-{2-[2-(hydroxymethyl)phenyl]ethyl}-1,4,4a,5,6,7-hexahydrocyclopenta[f]indazol-5-ol]	1.32 nM
CC[C@]12Cc3cnn(-c4ccc(F)cc4)c3C=C1CC[C@@]2(O)CCc1ncccc1S(C)(=O)=O [Example 80, (4aS,5R)-4a-Ethyl-1-(4-fluorophenyl)-5-{2-[3-(methylsulfonyl)pyridin-2-yl]ethyl}-1,4,4a,5,6,7-hexahydrocyclopenta[f]indazol-5-ol]	1.32 nM
CC[C@]12Cc3cnn(-c4ccccc4)c3C=C1CC[C@@]2(O)CC(O)c1ccccn1 (single isomer, unassigned) [Example 82b]	5.46 nM
NC(=O)C(O)c1ccccc1CC[C@]1(O)CCC2=Cc3c(cnn3-c3ccc(F)cc3)C[C@@]21C1CC1 (single isomer, unassigned) [Example 3a]	1.8 nM
CC[C@]12Cc3cnn(-c4ccccc4)c3C=C1CC[C@@]2(O)CCc1ncccc1S(=O)(=O)C(C)C [Example 81, (4aS,5R)-4a-Ethyl-5-{2-[3-(iso-propylsulfonyl)pyridin-2-yl]ethyl}-1-phenyl-1,4,4a,5,6,7-hexahydrocyclopenta[f]indazol-5-ol]	7.3 nM
